Several values for one entry are separate records, joined by “and”; a condition that tells them apart may be missing. Identical values can stand only once. Like-named read-outs stand apart in the source and are kept apart here.
Legend:
Ba/F3 TEL-JAK3 = Ba/F3 TEL-JAK3 (Homo sapiens, UniProt P52333); experiment: Inhibition of Ba/F3 TEL-JAK3 cell line; assay type: cell-based; conditions: read-out: IC50 (μM) Ba/F3 TEL-JAK3
Experimental: (§1) Growth and inhibition of growth was assessed by MTS assay. This assay, a colorimetric method for determining the number of viable cells, is based on the bioreduction of 3-(4,5-dimethylthiazol-2-yl)-5-(3-carboxymethoxyphenyl)-2-(4-sulfophenyl)-2H-tetrazolium (MTS) by cells to a formazan product that is soluble in cell culture medium, can be detected spectrophotometrically and was performed according to the manufacturer's recommended conditions. Ba/F3 cells were exposed to treatment for 72 hours and the number of cells used per experiment determined empirically to assure linear growth kinetics over that time period. All experimental points were set up in six to twelve wells and all experiments were repeated at least three times. […] The curves were fitted using a non-linear regression model with a sigmoidal dose response.

Ba/F3 TYK2_E957D = Ba/F3 TYK2_E957D (Homo sapiens (Human), UniProt P29597, E957D); experiment: Inhibition of Ba/F3 TYK2_E957D cell line; assay type: cell-based; conditions: read-out: IC50 (μM) Ba/F3 TYK2_E957D
Experimental: as §1

Ba/F3 TEL-ABL = Ba/F3 TEL-ABL (Homo sapiens, UniProt P00519); experiment: Inhibition of Ba/F3 TEL-ABL cell line; assay type: cell-based; conditions: read-out: IC50 (μM) Ba/F3 TEL-ABL
Experimental: as §1

Ba/F3 TEL-JAK2 = Ba/F3 TEL-JAK2 (Homo sapiens, UniProt O60674); experiment: Inhibition of Ba/F3 TEL-JAK2 cell line; assay type: cell-based; conditions: read-out: IC50 (μM) Ba/F3 TEL-JAK2
Experimental: as §1

Ba/F3 TEL-JAK1 = Ba/F3 TEL-JAK1 (Homo sapiens, UniProt P23458); experiment: Inhibition of Ba/F3 TEL-JAK1 cell line; assay type: cell-based; conditions: read-out: IC50 (μM) Ba/F3 TEL-JAK1
Experimental: as §1

[1] = Microsome Stability Mouse; assay type: in vitro ADME; conditions: mouse microsomes
[2] = target: EGFR Del/T790M Ba/F3 cells (Homo sapiens, UniProt P00533, T790M, cells depend on it, form not given); experiment: Ba/F3 cell growth inhibition (MTS assay), EGFR Del/T790M; assay type: cell-based; conditions: for IC50 / EGFR activity (% Control, 1.0 μM drug) Assay 1 Del/T790M: Assay 1; for IC50: Del/T790M, read-out: EGFR Ba/F3 cells IC 50 (nM) Assay 1 Del/T790M
Description: (§2) The specific cDNAs encoding the oncogenic alterations (EGFR: Del 19, L858R, L718Q, L844V, Del/T790M, L858R/T790M, Del 19/L718Q, Del 19/L844V, Del 19/T790M/L718Q and L858R/T790M/L718Q; FGFR: TEL-FGFR1, TEL-FGFR2, TEL-FGFR1 V561M, TEL-FGFR2 V561M; ALK: EML4-ALK; ROS1: CD74-ROS1) were cloned into the pDNA-Dual (BD Biosciences) vector using standard molecular biology techniques. Mutations were introduced using site-directed mutagenesis (Agilent) with mutant specific primers according to the manufacturer's instructions. All constructs were confirmed by DNA sequencing. The constructs were introduced into Ba/F3 cells using retroviral infection. Polyclonal cell lines were established by puromycin selection and subsequently cultured in the absence of interleukin-3 (IL-3). Uninfected Ba/F3 cells or cell lines expressing green fluorescent protein (GFP) were used as controls.
as §1

TEC = TEC (Homo sapiens (Human), UniProt P42680); experiment: Kinase inhibition TEC; assay type: biochemical
EGFR Del Ba/F3 cells = EGFR Del Ba/F3 cells (Homo sapiens, UniProt P00533, cells depend on it, form not given); experiment: Ba/F3 cell growth inhibition (MTS assay), EGFR Del; assay type: cell-based; conditions: for IC50 / EGFR activity (% Control, 1.0 μM drug) Assay 1 Del: Assay 1; for IC50: Del, read-out: EGFR Ba/F3 cells IC 50 (nM) Assay 1 Del
Description: as §2, §1

[3] = target: EGFR Wild type vIII Ba/F3 cells (Homo sapiens (Human), UniProt P00533, DELINS30-297G); experiment: Ba/F3 cell growth inhibition (MTS assay), EGFR Wild type vIII; assay type: cell-based
[4] = target: EGFR L858R/T790M/L718Q Ba/F3 cells (Homo sapiens (Human), UniProt P00533, L718Q/L858R/T790M); experiment: Ba/F3 cell growth inhibition (MTS assay), EGFR L858R/T790M/L718Q; assay type: cell-based
Description: as §2, §1

EGFR L858R Ba/F3 cells = EGFR L858R Ba/F3 cells (Homo sapiens (Human), UniProt P00533, L858R); experiment: Ba/F3 cell growth inhibition (MTS assay), EGFR L858R; assay type: cell-based; conditions: for IC50 / EGFR activity (% Control, 1.0 μM drug) Assay 1 L858R: Assay 1; for IC50: L858R, read-out: EGFR Ba/F3 cells IC 50 (nM) Assay 1 L858R
Description: as §2, §1

TXK = TXK (Homo sapiens (Human), UniProt P42681); experiment: Kinase inhibition TXK; assay type: biochemical
BLK = BLK (Homo sapiens (Human), UniProt P51451); experiment: Kinase inhibition BLK; assay type: biochemical
[5] = target: EGFR L858R/T790M Ba/F3 cells (Homo sapiens (Human), UniProt P00533, L858R/T790M); experiment: Ba/F3 cell growth inhibition (MTS assay), EGFR L858R/T790M; assay type: cell-based; conditions: Assay 1; L858R/T790M; read-out: EGFR Ba/F3 cells IC 50 (nM) Assay 1 L858R/T790M
Description: as §2, §1

ITK = ITK (Homo sapiens (Human), UniProt Q08881); experiment: Kinase inhibition ITK; assay type: biochemical
[6] = target: EGFR Del/T790M/L718Q Ba/F3 cells (Homo sapiens, UniProt P00533, L718Q/T790M, cells depend on it, form not given); assay type: cell-based
Description: as §2, §1

KIF5B/Ret_V804M = experiment: Ba/F3 cell growth inhibition (MTS assay), KIF5B/Ret_V804M; assay type: cell-based
Experimental: as §1

[7] = target: EGFR L718Q/L858R Ba/F3 cells (Homo sapiens (Human), UniProt P00533, L718Q/L858R); experiment: Ba/F3 cell growth inhibition (MTS assay), EGFR L858R/L718Q; assay type: cell-based; conditions: L718Q/L858R

Chain of TEC (P42680 whole entry): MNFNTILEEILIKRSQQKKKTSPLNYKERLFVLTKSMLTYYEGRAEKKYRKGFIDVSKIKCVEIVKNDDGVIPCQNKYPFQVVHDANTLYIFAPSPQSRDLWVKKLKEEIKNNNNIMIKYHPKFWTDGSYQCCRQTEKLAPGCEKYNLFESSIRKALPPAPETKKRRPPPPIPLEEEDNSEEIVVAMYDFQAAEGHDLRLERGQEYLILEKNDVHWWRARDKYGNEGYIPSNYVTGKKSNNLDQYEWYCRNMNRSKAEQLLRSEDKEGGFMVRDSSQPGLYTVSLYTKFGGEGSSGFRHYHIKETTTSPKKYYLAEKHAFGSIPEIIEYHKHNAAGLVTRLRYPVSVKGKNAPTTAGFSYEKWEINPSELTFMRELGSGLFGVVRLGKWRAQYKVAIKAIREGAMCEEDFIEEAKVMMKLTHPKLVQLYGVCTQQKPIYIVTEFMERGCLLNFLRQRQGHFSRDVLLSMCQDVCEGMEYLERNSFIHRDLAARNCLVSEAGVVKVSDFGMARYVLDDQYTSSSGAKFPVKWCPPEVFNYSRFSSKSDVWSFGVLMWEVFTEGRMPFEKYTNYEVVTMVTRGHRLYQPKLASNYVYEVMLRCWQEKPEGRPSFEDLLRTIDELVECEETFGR
Chain of ITK (Q08881 whole entry): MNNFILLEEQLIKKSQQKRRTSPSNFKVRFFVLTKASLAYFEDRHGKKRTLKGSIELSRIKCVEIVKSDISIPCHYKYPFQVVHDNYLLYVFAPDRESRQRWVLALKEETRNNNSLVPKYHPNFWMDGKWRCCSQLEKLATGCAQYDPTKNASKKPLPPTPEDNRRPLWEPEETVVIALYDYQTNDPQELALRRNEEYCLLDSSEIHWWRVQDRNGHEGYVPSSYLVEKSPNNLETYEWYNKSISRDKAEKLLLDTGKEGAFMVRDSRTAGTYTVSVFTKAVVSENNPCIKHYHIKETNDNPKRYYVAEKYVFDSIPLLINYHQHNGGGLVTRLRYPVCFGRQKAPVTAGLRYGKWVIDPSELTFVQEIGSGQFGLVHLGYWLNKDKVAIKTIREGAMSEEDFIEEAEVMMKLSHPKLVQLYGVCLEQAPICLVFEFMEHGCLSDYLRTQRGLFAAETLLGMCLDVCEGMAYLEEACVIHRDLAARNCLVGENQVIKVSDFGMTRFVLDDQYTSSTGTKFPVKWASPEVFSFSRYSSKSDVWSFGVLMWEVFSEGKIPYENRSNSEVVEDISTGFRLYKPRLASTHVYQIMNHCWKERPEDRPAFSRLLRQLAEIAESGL
Chain of TXK (P42681 whole entry): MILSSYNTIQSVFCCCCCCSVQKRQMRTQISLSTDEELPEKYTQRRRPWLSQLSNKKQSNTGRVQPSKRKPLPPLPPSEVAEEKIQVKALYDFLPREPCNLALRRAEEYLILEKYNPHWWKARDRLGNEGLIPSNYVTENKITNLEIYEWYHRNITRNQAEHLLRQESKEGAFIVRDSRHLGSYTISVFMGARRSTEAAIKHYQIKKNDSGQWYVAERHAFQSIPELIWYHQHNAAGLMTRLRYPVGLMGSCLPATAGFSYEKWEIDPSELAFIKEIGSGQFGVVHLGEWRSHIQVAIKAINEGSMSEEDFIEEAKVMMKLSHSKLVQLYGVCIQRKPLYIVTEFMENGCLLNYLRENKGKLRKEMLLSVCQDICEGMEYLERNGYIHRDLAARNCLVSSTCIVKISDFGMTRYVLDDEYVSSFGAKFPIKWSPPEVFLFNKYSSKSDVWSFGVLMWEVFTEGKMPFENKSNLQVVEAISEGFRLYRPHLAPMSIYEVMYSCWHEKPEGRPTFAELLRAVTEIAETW
Chain of BLK (P51451 whole entry): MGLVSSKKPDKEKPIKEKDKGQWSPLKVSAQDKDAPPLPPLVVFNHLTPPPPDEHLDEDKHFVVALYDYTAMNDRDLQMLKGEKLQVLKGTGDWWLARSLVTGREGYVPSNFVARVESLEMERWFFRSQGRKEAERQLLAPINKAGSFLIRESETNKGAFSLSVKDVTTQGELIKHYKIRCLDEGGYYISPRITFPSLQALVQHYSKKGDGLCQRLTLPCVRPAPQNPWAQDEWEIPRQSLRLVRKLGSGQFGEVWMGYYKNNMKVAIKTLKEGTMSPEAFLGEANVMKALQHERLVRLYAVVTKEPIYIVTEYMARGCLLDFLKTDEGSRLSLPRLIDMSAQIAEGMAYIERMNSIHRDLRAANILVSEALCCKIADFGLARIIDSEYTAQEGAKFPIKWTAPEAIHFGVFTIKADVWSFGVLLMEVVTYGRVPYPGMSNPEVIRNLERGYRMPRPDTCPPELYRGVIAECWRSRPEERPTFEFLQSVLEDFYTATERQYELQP
Chain of Ba/F3 TEL-ABL (P00519 whole entry, looked up, change not shown): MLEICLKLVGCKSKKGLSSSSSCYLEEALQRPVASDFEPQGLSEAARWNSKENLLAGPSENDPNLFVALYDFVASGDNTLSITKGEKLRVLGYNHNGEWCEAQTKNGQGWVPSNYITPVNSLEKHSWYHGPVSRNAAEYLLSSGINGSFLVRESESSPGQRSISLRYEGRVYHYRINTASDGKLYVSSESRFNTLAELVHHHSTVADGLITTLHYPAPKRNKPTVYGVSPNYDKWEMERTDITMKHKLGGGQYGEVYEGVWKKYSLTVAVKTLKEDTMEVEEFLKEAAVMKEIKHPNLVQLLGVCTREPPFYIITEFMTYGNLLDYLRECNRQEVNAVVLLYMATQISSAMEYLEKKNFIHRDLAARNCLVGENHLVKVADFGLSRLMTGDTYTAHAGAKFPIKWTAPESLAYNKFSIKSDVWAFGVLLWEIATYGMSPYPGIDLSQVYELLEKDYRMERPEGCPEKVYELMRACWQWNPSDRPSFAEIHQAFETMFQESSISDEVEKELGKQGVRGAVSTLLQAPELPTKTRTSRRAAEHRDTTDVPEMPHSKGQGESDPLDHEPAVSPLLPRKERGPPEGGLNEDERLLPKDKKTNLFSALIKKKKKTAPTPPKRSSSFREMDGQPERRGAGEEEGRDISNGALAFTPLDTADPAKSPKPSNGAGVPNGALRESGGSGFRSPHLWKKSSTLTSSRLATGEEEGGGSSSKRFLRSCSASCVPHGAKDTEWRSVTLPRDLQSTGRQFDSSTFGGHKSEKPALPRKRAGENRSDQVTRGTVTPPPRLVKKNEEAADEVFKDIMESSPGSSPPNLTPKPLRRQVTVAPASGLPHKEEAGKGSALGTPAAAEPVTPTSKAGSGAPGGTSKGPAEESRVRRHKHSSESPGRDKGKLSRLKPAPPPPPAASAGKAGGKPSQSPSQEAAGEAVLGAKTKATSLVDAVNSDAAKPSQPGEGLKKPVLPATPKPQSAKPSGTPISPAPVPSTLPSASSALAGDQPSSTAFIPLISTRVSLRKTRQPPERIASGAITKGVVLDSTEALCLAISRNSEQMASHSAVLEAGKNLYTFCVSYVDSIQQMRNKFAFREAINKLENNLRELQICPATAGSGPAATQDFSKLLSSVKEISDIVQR
Chain of Ba/F3 TYK2_E957D (P29597 whole entry E957D): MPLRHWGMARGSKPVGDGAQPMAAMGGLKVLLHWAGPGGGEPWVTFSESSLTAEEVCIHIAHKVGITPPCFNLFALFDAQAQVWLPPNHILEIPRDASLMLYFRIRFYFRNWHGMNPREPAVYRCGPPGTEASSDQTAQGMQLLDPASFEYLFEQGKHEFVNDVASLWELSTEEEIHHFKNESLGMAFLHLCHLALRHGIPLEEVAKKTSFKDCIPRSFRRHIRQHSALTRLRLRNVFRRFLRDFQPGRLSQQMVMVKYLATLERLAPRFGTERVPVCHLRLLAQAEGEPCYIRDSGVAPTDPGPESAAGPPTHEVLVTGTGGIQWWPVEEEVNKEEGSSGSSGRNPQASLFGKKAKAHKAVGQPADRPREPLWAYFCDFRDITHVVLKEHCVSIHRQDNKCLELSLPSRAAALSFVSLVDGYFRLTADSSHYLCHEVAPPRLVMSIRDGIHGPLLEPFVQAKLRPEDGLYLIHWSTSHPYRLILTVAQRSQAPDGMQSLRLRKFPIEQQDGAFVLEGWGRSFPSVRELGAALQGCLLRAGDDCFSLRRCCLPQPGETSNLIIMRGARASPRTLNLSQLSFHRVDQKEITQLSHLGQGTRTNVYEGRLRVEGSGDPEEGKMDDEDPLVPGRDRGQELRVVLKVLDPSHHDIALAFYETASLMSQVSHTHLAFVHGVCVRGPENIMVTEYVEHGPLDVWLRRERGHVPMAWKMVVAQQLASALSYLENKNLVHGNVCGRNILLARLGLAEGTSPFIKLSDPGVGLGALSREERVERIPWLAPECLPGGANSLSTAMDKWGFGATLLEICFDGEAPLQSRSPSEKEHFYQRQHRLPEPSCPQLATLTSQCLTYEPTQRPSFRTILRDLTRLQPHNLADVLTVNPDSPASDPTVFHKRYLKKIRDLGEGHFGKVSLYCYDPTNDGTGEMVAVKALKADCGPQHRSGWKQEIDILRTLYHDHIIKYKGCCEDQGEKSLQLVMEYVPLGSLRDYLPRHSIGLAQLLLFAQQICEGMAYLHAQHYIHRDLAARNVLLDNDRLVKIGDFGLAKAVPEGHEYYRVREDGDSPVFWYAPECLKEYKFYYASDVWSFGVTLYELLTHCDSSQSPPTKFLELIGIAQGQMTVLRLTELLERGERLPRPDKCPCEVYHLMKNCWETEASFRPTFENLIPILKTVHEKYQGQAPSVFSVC

Row | SMILES | Microsome Stability Mouse min [1] [min] | IC50 [2] [nM] | Kinase inhibition (% control, 1000 nM compound) TEC (TEC) [% control] | IC50 (EGFR Del Ba/F3 cells) [nM] | IC50 (EGFR L858R Ba/F3 cells) [nM] | Kinase inhibition (% control, 1000 nM compound) TXK (TXK) [% control] | Kinase inhibition (% control, 1000 nM compound) BLK (BLK) [% control] | IC50 [5] [nM] | Kinase inhibition (% control, 1000 nM compound) ITK (ITK) [% control] | EGFR activity (% Control, 1.0 μM drug) Assay 1 Del/T790M/L718Q ([6]; Assay 1) [% Control] | EGFR activity (% Control, 1.0 μM drug) Assay 2 Del/T790M/L718Q [6] [% Control] | EGFR activity (% Control, 1.0 μM drug) Assay 1 Del/T790M [2] [% Control] | EGFR activity (% Control, 1.0 μM drug) Assay 2 Del/T790M [2] [% Control] | EGFR activity (% Control, 1.0 μM drug) Assay 1 Del (EGFR Del Ba/F3 cells) [% Control] | EGFR activity (% Control, 1.0 μM drug) Assay 2 Del (EGFR Del Ba/F3 cells) [% Control] | EGFR activity (% Control, 1.0 μM drug) Assay 1 L858R (EGFR L858R Ba/F3 cells) [% Control] | EGFR activity (% Control, 1.0 μM drug) Assay 2 L858R (EGFR L858R Ba/F3 cells) [% Control] | further results
1 | C=CC(=O)Nc1cccc(N(C(=O)OCc2ccccc2)c2ccnc(Nc3cnn(CCN4CCOCC4)c3)n2)c1 [Compound 85A] |  |  |  |  |  |  |  |  |  |  |  |  |  |  |  |  |  | IC50 (Ba/F3 TEL-JAK3): 0.189 µM; IC50 (Ba/F3 TYK2_E957D): 4.37 µM; IC50 (Ba/F3 TEL-ABL): 16.1 µM; IC50 (Ba/F3 TEL-JAK2): 18.3 µM; IC50 (Ba/F3 TEL-JAK1): 8.86 µM
2 | C=CC(=O)Nc1cccc(N(C(=O)OCc2ccccc2)c2ccnc(Nc3ccc(N4CCN(C)CC4)cc3OC)n2)c1 [Compound 4A, Benzyl (3-acrylamidophenyl)(2-((2-methoxy-4-(4-methylpiperazin-1-yl)phenyl)amino)pyrimidin-4-yl)carbamate] | 29 | 17.3 | 83 | 14.2 | 0.5 | 27 | 20 | 7.6 | 100 |  |  |  |  |  |  |  |  | IC50 ([3]; Assay 1, read-out: EGFR Ba/F3 cells IC 50 (nM) Assay 1 Wild type vIII): 2.92 nM; IC50 ([4]; Assay 1; T/L/L718Q; read-out: EGFR Ba/F3 cells IC 50 (nM) Assay 1 T/L/L718Q): 293 nM
3 | C=CC(=O)Nc1cc(Nc2nccc(N(C)C(=O)Oc3ccccc3)n2)c(OC)cc1N(C)CCN(C)C [Compound 80A] |  |  | 90 |  |  | 12 | 14 |  | 94 |  |  |  |  |  |  |  |  | 
4 | C=CC(=O)Nc1cccc(N(C(=O)NCc2ccccc2)c2cc(Nc3ccc(N4CCN(C)CC4)cc3OC)ncn2)c1 [Compound 3A, N-(3-(3-benzyl-1-(6-((2-methoxy-4-(4-methylpiperazin-1-yl)phenyl)amino)pyrimidin-4-yl)ureido)phenyl)acrylamide] |  |  | 55 |  |  | 7.4 | 19 |  | 100 | 53 | 86 | 1 | 2 | 2 | 1 | 2 | 4 | EGFR activity (% Control, 1.0 μM drug) Assay 1 KIF5B/Ret_V804M (KIF5B/Ret_V804M): 102 % Control
5 | C=CC(=O)Nc1cccc(N(C(=O)Oc2ccccc2)c2ccnc(Nc3ccc(N4CCN(C)CC4)cc3OC)n2)c1 [Compound 10A] | 18.5 | 22.9 |  | 4.64 | 1.52 |  |  | 14.8 |  | 76 | 84 | 2 | 2 | 4 | 1 | 4 | 3 | IC50 ([6]; read-out: EGFR Ba/F3 cells IC 50 Assay 1 Del/T/L718Q, Assay 1, Del/T/L718Q): > 1 µM and 1 µM; IC50 ([3]; read-out: EGFR Ba/F3 cells IC 50 (nM) Assay 1 Wild type vIII): 28.1 nM; IC50 ([4]; read-out: EGFR Ba/F3 cells IC 50 (nM) Assay 1 T/L/L718Q; Assay 1; T/L/L718Q): 270 nM; KIF5B/Ret_V804M Ba/F3 cell growth (% control, 1.0 μM drug) (KIF5B/Ret_V804M; Assay 1): 91 % Control; IC50 ([7]; read-out: EGFR Ba/F3 cells IC 50 (nM) Assay 1 L718Q/L858R, Assay 1): 146 nM; IC50 ([7]; read-out: EGFR Ba/F3 cells IC 50 (nM) Assay 2 L718Q/L858R, Assay 2): 204 nM

Reference: patent US10906878B2, “Kinase inhibitors for the treatment of disease” (Dana-Farber Cancer Institute, Inc., priority 2013, dated 2021)
